What was measured:
Assay type in all cases: binding
panel of 442 kinases [1] = biological target: T1, panel of 442 kinases (Homo sapiens, UniProt Q8TBX8); settings: Compound Concentration 10 µM
T1 construct: purchased KINOMEscan
T1 sequence (Q8TBX8 1-421): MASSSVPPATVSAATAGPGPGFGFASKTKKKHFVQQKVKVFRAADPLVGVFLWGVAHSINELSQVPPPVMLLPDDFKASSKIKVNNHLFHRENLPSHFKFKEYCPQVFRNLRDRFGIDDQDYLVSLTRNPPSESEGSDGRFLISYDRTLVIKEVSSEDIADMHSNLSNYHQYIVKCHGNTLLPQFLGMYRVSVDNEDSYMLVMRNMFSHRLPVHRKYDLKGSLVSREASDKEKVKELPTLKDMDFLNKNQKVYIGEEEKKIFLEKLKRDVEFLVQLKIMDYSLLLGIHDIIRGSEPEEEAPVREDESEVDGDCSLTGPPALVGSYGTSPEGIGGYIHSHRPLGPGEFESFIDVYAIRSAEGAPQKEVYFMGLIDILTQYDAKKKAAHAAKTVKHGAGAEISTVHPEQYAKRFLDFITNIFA
Excerpt: (§1) We assessed the selectivity of members of this scaffold using the KINOMEscan methodology across a near comprehensive panel of 442 kinases [[18,27]].

panel of 442 kinases [2] = biological target: T2, panel of 442 kinases (Homo sapiens, UniProt P0C1S8); settings: kinase WEE2; compound concentration 10 µM
T2 construct: purchased KINOMEscan
T2 sequence (P0C1S8 whole entry): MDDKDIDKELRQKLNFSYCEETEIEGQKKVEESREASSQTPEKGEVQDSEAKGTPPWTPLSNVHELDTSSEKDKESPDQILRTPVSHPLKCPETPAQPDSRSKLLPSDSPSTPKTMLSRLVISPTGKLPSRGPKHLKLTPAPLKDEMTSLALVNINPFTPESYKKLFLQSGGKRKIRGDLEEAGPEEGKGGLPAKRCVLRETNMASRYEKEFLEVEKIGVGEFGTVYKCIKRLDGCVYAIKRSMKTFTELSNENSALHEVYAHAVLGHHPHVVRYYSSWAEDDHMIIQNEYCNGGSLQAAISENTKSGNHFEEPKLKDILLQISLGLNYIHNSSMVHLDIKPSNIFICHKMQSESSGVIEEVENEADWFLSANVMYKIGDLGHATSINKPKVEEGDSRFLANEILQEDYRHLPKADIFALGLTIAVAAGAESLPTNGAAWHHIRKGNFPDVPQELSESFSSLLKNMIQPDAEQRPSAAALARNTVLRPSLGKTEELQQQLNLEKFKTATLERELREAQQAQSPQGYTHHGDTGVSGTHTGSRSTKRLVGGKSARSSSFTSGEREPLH
Excerpt: as §1

panel of 442 kinases [3] = biological target: T3, panel of 442 kinases (Homo sapiens, UniProt P53350); settings: Compound Concentration 10 µM
T3 construct: purchased KINOMEscan
T3 sequence (P53350 whole entry): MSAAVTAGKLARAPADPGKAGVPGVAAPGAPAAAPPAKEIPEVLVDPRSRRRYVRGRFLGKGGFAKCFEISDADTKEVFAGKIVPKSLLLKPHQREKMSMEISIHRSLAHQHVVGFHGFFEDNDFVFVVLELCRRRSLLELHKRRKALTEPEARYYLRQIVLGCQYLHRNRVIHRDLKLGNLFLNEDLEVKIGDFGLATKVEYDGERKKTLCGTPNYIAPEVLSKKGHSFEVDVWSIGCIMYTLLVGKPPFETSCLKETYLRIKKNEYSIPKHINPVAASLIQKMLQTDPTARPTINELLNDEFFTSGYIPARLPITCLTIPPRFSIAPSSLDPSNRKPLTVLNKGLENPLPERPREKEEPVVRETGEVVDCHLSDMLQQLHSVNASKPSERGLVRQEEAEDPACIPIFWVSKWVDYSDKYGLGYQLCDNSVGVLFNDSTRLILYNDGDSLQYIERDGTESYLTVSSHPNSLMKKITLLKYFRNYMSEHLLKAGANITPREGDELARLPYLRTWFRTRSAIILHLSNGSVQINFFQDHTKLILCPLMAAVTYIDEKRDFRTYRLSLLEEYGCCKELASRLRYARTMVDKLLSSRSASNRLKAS
Excerpt: as §1

Row | Structure (SMILES) | KINOMEscan: PIP5K2C (panel of 442 kinases [1]) | % Ctrl, WEE2 (panel of 442 kinases [2]) [% Ctrl] | KINOMEscan: PLK1 (panel of 442 kinases [3])
1 | COc1cc(C(=O)N2CCC(N3CCN(C)CC3)CC2)ccc1Nc1ncc2c(n1)N(C)c1ccccc1C(=O)N2C [15 (LRRK2-IN-1)] | 40 | 100 | 0.7
2 | COc1cc(C(=O)N2CCC(N3CCN(C)CC3)CC2)ccc1Nc1ncc2c(n1)N1CCc3cccc(c31)C(=O)N2C [Compound 24] | – | 100 | 0.2
3 | COc1cc(C(=O)N2CCC(N3CCN(C)CC3)CC2)ccc1Nc1ncc2c(n1)N(C1CCCC1)c1ccccc1C(=O)N2C [Compound 25, 11-cyclopentyl-2-((2-methoxy-4-(4-(4-methylpiperazin-1-yl)piperidine-1-carbonyl)phenyl)amino)-5-methyl-5H-benzo[e]pyrimido[5,4-b][1,4]diazepin-6(11H)-one] | 96 | 100 | 43
4 | CCOc1cc(C(=O)N2CCC(N3CCN(C)CC3)CC2)ccc1Nc1ncc2c(n1)N(C1CCCC1)c1ccccc1C(=O)N2C [Compound 26] | 93 | 100 | 95
